Usually Ki stands for the equilibrium dissociation constant of an inhibitor or competing ligand from its target.

T6 sequence (P19020 whole entry): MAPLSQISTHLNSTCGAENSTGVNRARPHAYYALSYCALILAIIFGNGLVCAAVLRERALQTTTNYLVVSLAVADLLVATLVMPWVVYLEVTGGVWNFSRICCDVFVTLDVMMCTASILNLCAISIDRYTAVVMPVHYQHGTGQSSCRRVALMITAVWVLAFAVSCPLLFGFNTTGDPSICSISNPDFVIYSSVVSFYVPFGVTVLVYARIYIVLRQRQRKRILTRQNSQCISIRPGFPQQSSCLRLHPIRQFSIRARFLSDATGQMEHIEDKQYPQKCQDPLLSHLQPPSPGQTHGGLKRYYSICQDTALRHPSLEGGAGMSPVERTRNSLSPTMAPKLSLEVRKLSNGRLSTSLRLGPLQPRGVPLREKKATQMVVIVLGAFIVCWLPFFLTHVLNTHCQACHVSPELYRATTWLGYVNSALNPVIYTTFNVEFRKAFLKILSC

In the first test the target is T1, human 5HT1B (Homo sapiens, UniProt P28222).
T1 construct: expressed in transfected cells
T1 sequence (P28222 whole entry): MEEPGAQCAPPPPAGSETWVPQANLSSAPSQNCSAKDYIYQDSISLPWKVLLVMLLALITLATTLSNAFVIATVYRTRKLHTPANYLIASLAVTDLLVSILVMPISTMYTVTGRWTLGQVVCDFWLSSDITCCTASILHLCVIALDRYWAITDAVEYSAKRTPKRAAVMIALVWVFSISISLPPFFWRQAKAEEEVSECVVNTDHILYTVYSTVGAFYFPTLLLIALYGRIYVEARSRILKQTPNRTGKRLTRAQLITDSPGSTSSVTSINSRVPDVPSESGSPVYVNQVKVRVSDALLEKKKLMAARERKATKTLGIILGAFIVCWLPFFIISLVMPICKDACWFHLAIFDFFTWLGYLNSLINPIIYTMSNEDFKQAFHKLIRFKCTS
Put plainly: Radioligand binding, 5HT1B receptor ([3H]-serotonin). Conditions: Table 7; read-out: h5HT1B Ki. The procedure: Human 5HT1B, 5HT1D, 5HT1E, 5HT1F, and 5HT7 Receptors: The cell lysates of LM(tk-) clonal cell line stably transfected with the genes encoding each of these 5HT receptor-subtypes were prepared as described above. Cell membranes were suspended in 50mM Tris-HCl buffer (pH 7.4 at 37°C) containing 10 mM MgCl2, 0.2 mM EDTA, 10 µM pargyline, and 0.1% ascorbate. […] Nonspecific binding was determined in the presence of 10 µM serotonin. The bound radioligand was separated by filtration through GF/B filters using a cell harvester.
(§1) Binding data were analyzed using nonlinear regression and statistical techniques available in the GraphPAD Prism package (San Diego, CA). Enzymatic assay data were derived from a standard curve of reference compound data.
For the compound `Cc1ccc(Nc2cc(N3CCCCC3)nc(N3CCN(c4ncccc4C(F)(F)F)CC3)n2)cc1` [Example 34], the Ki came to 1.06 µM.

As to `O=C1C(=Nc2ccc(Cl)cc2)c2ccccc2N1c1ccccc1` [Example 97, 3-[(4-CHLOROPHENYL)IMINO]-1-PHENYL-1,3-DIHYDRO-2H-INDOL-2-ONE], the Ki came out at 5.06 µM.

The test is the same for the next values; noted with them: Table 8; Ki h5HT1B divided by Ki hGAL3.
For the compound `Cc1ccc(Nc2cc(N3CCCCC3)nc(N3CCN(c4ncccc4C(F)(F)F)CC3)n2)cc1` [Example 34], the “selectivity ratio h5HT1B” value is reported as >30.

For `O=C1C(=Nc2ccc(Cl)cc2)c2ccccc2N1c1ccccc1` [Example 97, 3-[(4-CHLOROPHENYL)IMINO]-1-PHENYL-1,3-DIHYDRO-2H-INDOL-2-ONE], the “selectivity ratio h5HT1B” value is >30.

For the next test, the target named is T2, rat 5HT2C receptor (Rattus norvegicus, UniProt P08909).
T2 construct: expressed in transfected cells
T2 sequence (P08909 33-460): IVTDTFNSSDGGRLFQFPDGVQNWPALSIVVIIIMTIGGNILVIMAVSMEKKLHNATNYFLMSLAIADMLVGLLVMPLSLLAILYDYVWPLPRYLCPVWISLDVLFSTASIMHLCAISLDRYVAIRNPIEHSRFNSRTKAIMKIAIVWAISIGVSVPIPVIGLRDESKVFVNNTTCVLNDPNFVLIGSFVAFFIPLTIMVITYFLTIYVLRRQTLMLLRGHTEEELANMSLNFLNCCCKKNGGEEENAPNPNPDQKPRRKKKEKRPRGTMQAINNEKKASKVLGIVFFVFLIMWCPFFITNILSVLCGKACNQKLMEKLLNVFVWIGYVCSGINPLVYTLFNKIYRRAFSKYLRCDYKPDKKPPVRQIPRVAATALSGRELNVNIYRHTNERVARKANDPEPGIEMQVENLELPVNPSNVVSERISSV
Put plainly: Radioligand binding, 5HT2C receptor. The following applies: Table 7; read-out: r5HT2C Ki. The procedure: Other 5-HT Receptors: Other serotonin receptor binding assays were performed according to published methods: rat 5HT2C receptor (Julius et al., 1988); and 5-HT6 (Monsma, et al., 1993). The binding assays using the 5-HT4 receptor were performed according to the procedures described in U.S. Patent No. 5,766,879, the disclosure of which is hereby incorporated by reference in its entirety into this application.
as §1
For `Cc1ccc(Nc2cc(N3CCCCC3)nc(N3CCN(c4ncccc4C(F)(F)F)CC3)n2)cc1` [Example 34], the Ki came out at 2.08 µM.

`O=C1C(=Nc2ccc(Cl)cc2)c2ccccc2N1c1ccccc1` [Example 97, 3-[(4-CHLOROPHENYL)IMINO]-1-PHENYL-1,3-DIHYDRO-2H-INDOL-2-ONE]: the Ki amounted to 1.95 µM.

The test is the same for the next values; noted with them: Table 8; Ki r5HT2C divided by Ki hGAL3.
As to `Cc1ccc(Nc2cc(N3CCCCC3)nc(N3CCN(c4ncccc4C(F)(F)F)CC3)n2)cc1` [Example 34], the “selectivity ratio r5HT2C” value is reported as >30.

Consider `O=C1C(=Nc2ccc(Cl)cc2)c2ccccc2N1c1ccccc1` [Example 97, 3-[(4-CHLOROPHENYL)IMINO]-1-PHENYL-1,3-DIHYDRO-2H-INDOL-2-ONE], for which the “selectivity ratio r5HT2C” value is >30.

The next test deals with T3, Human 5HT2A Receptor (Homo sapiens, UniProt P28223).
T3 construct: expressed in transfected cells; host or cells: COS-7 cells (pCEXV-3 vector, DEAE-dextran)
T3 sequence (P28223 whole entry): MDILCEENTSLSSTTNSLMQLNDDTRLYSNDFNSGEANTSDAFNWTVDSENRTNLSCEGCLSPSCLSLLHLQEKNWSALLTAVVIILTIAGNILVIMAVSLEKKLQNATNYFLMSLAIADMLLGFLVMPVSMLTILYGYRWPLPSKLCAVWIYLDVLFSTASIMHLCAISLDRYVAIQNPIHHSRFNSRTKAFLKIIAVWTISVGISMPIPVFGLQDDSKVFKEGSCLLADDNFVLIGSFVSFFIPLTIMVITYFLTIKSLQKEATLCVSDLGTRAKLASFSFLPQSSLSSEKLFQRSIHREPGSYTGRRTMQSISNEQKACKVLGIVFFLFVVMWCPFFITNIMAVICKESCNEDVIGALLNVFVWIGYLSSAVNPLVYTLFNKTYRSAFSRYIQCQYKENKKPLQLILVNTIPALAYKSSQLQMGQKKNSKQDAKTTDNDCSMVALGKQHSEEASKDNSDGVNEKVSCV
Put plainly: Radioligand binding, 5HT2A receptor ([3H]ketanserin). The following applies: Table 7; read-out: h5HT2A Ki. The procedure: Human 5HT2A Receptor: The coding sequence of the human 5HT2A receptor was obtained from a human brain cortex cDNA library, and cloned into the cloning site of pCEXV-3 eukaryotic expression vector. This construct was transfected into COS-7 cells by the DEAE-dextran method (Cullen, 1987). Cells were harvested after 72 hours and lysed by sonication in 5 mM Tris-HCl, 5 mM EDTA, pH 7.5. The cell lysates were subjected to centrifugation at 1000 rpm for 5 minutes at 4°C, and the supernatant was subjected to centrifugation at 30,000 x g for 20 minutes at 4°C. The pellet was suspended in 50 mM Tris-HCl buffer (pH 7.7 at room temperature) containing 10 mM MgS04, 0.5 mM EDTA, and 0.1% ascorbate. The affinity of compounds at 5HT2A receptors were determined in equilibrium competition binding assays using [^3H]ketanserin (1 nM). Nonspecific binding was defined by the addition of 10 µM mianserin. The bound radioligand was separated by filtration through GF/B filters using a cell harvester.
as §1
As to `O=C1C(=Nc2ccc(Cl)cc2)c2ccccc2N1c1ccccc1` [Example 97, 3-[(4-CHLOROPHENYL)IMINO]-1-PHENYL-1,3-DIHYDRO-2H-INDOL-2-ONE], the Ki is > 50 µM.

The test is the same for the next values; noted with them: Table 8; Ki h5HT2A divided by Ki hGAL3.
Regarding `Cc1ccc(Nc2cc(N3CCCCC3)nc(N3CCN(c4ncccc4C(F)(F)F)CC3)n2)cc1` [Example 34], the “selectivity ratio h5HT2A” value is on record as >100.

As to `O=C1C(=Nc2ccc(Cl)cc2)c2ccccc2N1c1ccccc1` [Example 97, 3-[(4-CHLOROPHENYL)IMINO]-1-PHENYL-1,3-DIHYDRO-2H-INDOL-2-ONE], the “selectivity ratio h5HT2A” value is >100.

A further test addresses T4, human α1A adrenoceptor (Homo sapiens, UniProt P35348).
T4 construct: expressed in transfected cells
T4 sequence (P35348 1-466): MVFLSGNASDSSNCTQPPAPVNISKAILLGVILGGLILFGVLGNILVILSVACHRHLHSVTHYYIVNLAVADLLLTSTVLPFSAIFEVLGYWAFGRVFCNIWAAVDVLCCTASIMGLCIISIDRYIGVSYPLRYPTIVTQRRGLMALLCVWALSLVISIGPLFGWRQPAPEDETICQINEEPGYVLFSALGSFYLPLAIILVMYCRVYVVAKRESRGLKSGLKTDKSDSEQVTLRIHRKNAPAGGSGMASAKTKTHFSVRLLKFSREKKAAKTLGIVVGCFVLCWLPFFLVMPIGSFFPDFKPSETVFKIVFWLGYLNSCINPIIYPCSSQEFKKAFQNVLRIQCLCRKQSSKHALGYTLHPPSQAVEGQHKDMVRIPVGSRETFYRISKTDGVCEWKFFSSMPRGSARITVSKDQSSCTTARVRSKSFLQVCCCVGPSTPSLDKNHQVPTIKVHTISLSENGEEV
Put plainly: Radioligand binding, α1A adrenergic receptor. Conditions: Table 9; read-out: hα1A Ki.
Description: (§2) Other receptors: Cell membranes expressing human dopamine D1, D2, D4 and rat D3 receptors were purchased through BioSignal, Inc. (Montreal, Canada). Binding assays using the histamine H1 receptor; dopamine receptors; and α1A, α1E, and α2 adrenergic receptors may be carried out according to the procedures described in U.S. Patent No. 5,780,485, the disclosure of which is hereby incorporated by reference in its entirety into this application. Binding assays using the dopamine D5 receptor may be carried out according to the procedures described in U.S. Patent No. 5,882,855, the disclosure of which is hereby incorporated by reference in its entirety into this application. Binding assays for the human α1D adrenergic receptor may be carried out according to the procedures described in U.S. Patent No. 6,156,518, the disclosure of which is hereby incorporated by reference in its entirety into this application.
as §1
With `Cc1ccc(Nc2cc(N3CCCCC3)nc(N3CCN(c4ncccc4C(F)(F)F)CC3)n2)cc1` [Example 34], the Ki is 3.76 µM.

As to `O=C1C(=Nc2ccc(Cl)cc2)c2ccccc2N1c1ccccc1` [Example 97, 3-[(4-CHLOROPHENYL)IMINO]-1-PHENYL-1,3-DIHYDRO-2H-INDOL-2-ONE], the Ki came out at 16.9 µM.

The same test, now with this note: Table 10; Ki hα1A divided by Ki hGAL3.
On to `Cc1ccc(Nc2cc(N3CCCCC3)nc(N3CCN(c4ncccc4C(F)(F)F)CC3)n2)cc1` [Example 34], for which the “selectivity ratio hα1A” value is >100.

Take `O=C1C(=Nc2ccc(Cl)cc2)c2ccccc2N1c1ccccc1` [Example 97, 3-[(4-CHLOROPHENYL)IMINO]-1-PHENYL-1,3-DIHYDRO-2H-INDOL-2-ONE]: the “selectivity ratio hα1A” value was >100.

A further test deals with T5, human dopamine D2 (Homo sapiens, UniProt P14416).
T5 construct: purchased BioSignal, Inc. (Montreal, Canada)
T5 sequence (P14416 whole entry): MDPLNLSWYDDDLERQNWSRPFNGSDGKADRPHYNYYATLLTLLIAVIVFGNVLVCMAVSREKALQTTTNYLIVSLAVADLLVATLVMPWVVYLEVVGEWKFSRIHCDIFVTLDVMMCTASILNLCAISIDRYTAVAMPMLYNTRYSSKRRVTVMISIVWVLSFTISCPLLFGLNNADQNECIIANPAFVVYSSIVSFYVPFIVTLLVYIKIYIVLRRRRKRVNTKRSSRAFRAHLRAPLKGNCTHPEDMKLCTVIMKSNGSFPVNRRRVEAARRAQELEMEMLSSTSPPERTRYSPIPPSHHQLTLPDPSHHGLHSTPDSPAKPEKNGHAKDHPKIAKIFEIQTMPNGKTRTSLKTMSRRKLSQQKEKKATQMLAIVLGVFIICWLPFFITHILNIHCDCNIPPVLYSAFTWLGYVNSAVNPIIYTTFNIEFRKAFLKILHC
Put plainly: Radioligand binding, dopamine D2 receptor. The following applies: Table 9; read-out: hD2 Ki.
Description: as §2, §1
Consider `Cc1ccc(Nc2cc(N3CCCCC3)nc(N3CCN(c4ncccc4C(F)(F)F)CC3)n2)cc1` [Example 34], for which the Ki was 2.5 µM.

On to `O=C1C(=Nc2ccc(Cl)cc2)c2ccccc2N1c1ccccc1` [Example 97, 3-[(4-CHLOROPHENYL)IMINO]-1-PHENYL-1,3-DIHYDRO-2H-INDOL-2-ONE], for which the Ki is > 50 µM.

The same test, now with this note: Table 10; Ki hD2 divided by Ki hGAL3.
`Cc1ccc(Nc2cc(N3CCCCC3)nc(N3CCN(c4ncccc4C(F)(F)F)CC3)n2)cc1` [Example 34]: the “selectivity ratio hD2” value is >100.

Consider `O=C1C(=Nc2ccc(Cl)cc2)c2ccccc2N1c1ccccc1` [Example 97, 3-[(4-CHLOROPHENYL)IMINO]-1-PHENYL-1,3-DIHYDRO-2H-INDOL-2-ONE], for which the “selectivity ratio hD2” value was >100.

The next test addresses T6, rat D3 receptors (Rattus norvegicus, UniProt P19020).
T6 construct: purchased BioSignal, Inc. (Montreal, Canada)
Put plainly: Radioligand binding, dopamine D3 receptor. Conditions: Table 9; read-out: rD3 Ki.
Description: as §2, §1
`Cc1ccc(Nc2cc(N3CCCCC3)nc(N3CCN(c4ncccc4C(F)(F)F)CC3)n2)cc1` [Example 34]: the Ki was found to be 9.92 µM.

Turning to `O=C1C(=Nc2ccc(Cl)cc2)c2ccccc2N1c1ccccc1` [Example 97, 3-[(4-CHLOROPHENYL)IMINO]-1-PHENYL-1,3-DIHYDRO-2H-INDOL-2-ONE], the Ki came out at 9.72 µM.

Still in this test, the particulars now being: Table 10; Ki rD3 divided by Ki hGAL3.
With `Cc1ccc(Nc2cc(N3CCCCC3)nc(N3CCN(c4ncccc4C(F)(F)F)CC3)n2)cc1` [Example 34], the “selectivity ratio rD3” value is >100.

Consider `O=C1C(=Nc2ccc(Cl)cc2)c2ccccc2N1c1ccccc1` [Example 97, 3-[(4-CHLOROPHENYL)IMINO]-1-PHENYL-1,3-DIHYDRO-2H-INDOL-2-ONE], for which the “selectivity ratio rD3” value was >100.

The record behind these values is patent EP2140864A2 (H. Lundbeck A/S, priority 2001, dated 2002).
